Results published in patent US9193733B2, “Piperidinylcyclobutyl substituted pyrrolopyridine and pyrrolopyrimidine derivatives as JAK inhibitors” (Incyte Corporation, priority 2012, dated 2015).

How the values were obtained:
Format in all cases: biochemical
[1] = target: T1, human JAK1 (a.a. 837-1142) catalytic domain (Homo sapiens, UniProt P23458); experiment: In vitro JAK kinase assay (HTRF, phosphorylation of a biotinylated peptide), JAK1; conditions: 1 mM ATP
T1 construct: human JAK1 (a.a. 837-1142) and JAK2 (a.a. 828-1132); His tag (N); made in house; host or cells: insect cells (baculovirus)
Procedure: (§1) Compounds herein were tested for inhibitory activity of JAK targets according to the following in vitro assay described in Park et al., Analytical Biochemistry 1999, 269, 94-104. The catalytic domains of human JAK1 (a.a. 837-1142) and JAK2 (a.a. 828-1132) with an N-terminal His tag were expressed using baculovirus in insect cells and purified. The catalytic activity of JAK1 and JAK2 was assayed by measuring the phosphorylation of a biotinylated peptide. The phosphorylated peptide was detected by homogenous time resolved fluorescence (HTRF). IC50s of compounds were measured for each kinase in the 40 microL reactions that contain the enzyme, ATP and 500 nM peptide in 50 mM Tris (pH 7.8) buffer with 100 mM NaCl, 5 mM DTT, and 0.1 mg/mL (0.01%) BSA. For the 1 mM IC50 measurements, ATP concentration in the reactions was 1 mM. Reactions were carried out at room temperature for 1 hour and then stopped with 20 μL 45 mM EDTA, 300 nM SA-APC, 6 nM Eu-Py20 in assay buffer (Perkin Elmer, Boston, Mass.). Binding to the Europium labeled antibody took place for 40 minutes and HTRF signal was measured on a Fusion plate reader (Perkin Elmer, Boston, Mass.). See Table A for data related to compounds of the Examples (at 1 mM). Data is indicated as ranges: <20 nM (+), 20 to <150 nM (++), 150 to 500 nM (+++).

[2] = tested on: human JAK1 (a.a. 837-1142) catalytic domain; experiment: as above; conditions: ratio of JAK2 IC50 to JAK1 IC50, 1 mM ATP
Procedure: as §1

[3] = target: T2, human JAK2 (a.a. 828-1132) catalytic domain (Homo sapiens, UniProt O60674); experiment: In vitro JAK kinase assay (HTRF, phosphorylation of a biotinylated peptide), JAK2; conditions: 1 mM ATP
T2 construct: human JAK1 (a.a. 837-1142) and JAK2 (a.a. 828-1132); His tag (N); made in house; host or cells: insect cells (baculovirus)
Procedure: as §1

T1 sequence (P23458 849-1154): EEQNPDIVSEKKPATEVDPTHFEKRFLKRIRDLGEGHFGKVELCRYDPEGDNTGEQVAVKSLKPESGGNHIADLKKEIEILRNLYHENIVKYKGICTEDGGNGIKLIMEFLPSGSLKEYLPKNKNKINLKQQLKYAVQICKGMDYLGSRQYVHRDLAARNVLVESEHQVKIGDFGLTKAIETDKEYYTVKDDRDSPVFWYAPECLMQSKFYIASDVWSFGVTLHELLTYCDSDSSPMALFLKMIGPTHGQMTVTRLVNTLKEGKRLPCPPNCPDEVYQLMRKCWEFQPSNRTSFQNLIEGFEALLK
T2 sequence (O60674 828-1132): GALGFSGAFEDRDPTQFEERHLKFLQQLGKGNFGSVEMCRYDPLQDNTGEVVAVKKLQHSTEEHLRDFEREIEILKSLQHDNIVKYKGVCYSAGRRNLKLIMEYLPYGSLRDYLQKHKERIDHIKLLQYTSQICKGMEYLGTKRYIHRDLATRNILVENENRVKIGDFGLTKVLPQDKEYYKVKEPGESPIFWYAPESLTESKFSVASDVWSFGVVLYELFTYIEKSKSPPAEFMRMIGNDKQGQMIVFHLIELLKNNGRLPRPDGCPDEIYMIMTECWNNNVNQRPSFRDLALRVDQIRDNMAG

Compound | IC50 [1] | JAK2/JAK1 [2] | IC50 [3]
N#CC[C@]1(n2cc(-c3ncnc4[nH]ccc34)cn2)C[C@H](N2CCC(Oc3cc(CNC4CCOCC4)cc(C(F)(F)F)n3)CC2)C1 [Example 5, [trans-1-[4-(7H-pyrrolo[2,3-d]pyrimidin-4-yl)-1H-pyrazol-1-yl]-3-(4-{[4-[(tetrahydro-2H-pyran-4-ylamino)methyl]-6-(trifluoromethyl)pyridin-2-yl]oxy}piperidin-1-yl)cyclobutyl]acetonitrile] | < 20 nM | >10 | 20 to 150 nM
CCNCc1cc(NC2CCN([C@H]3C[C@](CC#N)(n4cc(-c5ncnc6[nH]ccc56)cn4)C3)CC2)nc(C(F)(F)F)n1 [Example 28, {trans-3-(4-{[6-[(ethylamino)methyl]-2-(trifluoromethyl)pyrimidin-4-yl]amino}piperidin-1-yl)-1-[4-(7H-pyrrolo[2,3-d]pyrimidin-4-yl)-1H-pyrazol-1-yl]cyclobutyl}acetonitrile] | < 20 nM | >10 | 20 to 150 nM
N#CC[C@]1(n2cc(-c3ncnc4[nH]ccc34)cn2)C[C@H](N2CCC(Nc3cc(CN4CC[C@H](O)C4)cc(C(F)(F)F)n3)CC2)C1 [Example 43, {trans-3-(4-{[4-{[(3S)-3-hydroxypyrrolidin-1-yl]methyl}-6-(trifluoromethyl)pyridin-2-yl]amino}piperidin-1-yl)-1-[4-(7H-pyrrolo[2,3-d]pyrimidin-4-yl)-1H-pyrazol-1-yl]cyclobutyl}acetonitrile] | < 20 nM | >10 | 20 to 150 nM
N#CC[C@]1(n2cc(-c3ncnc4[nH]ccc34)cn2)C[C@H](N2CCC(Oc3cc(CCO)cc(C(F)(F)F)n3)CC2)C1 [Example 20, {trans-3-(4-{[4-(2-hydroxyethyl)-6-(trifluoromethyl)pyridin-2-yl]oxy}piperidin-1-yl)-1-[4-(7H-pyrrolo[2,3-d]pyrimidin-4-yl)-1H-pyrazol-1-yl]cyclobutyl}acetonitrile] | < 20 nM | >10 | 20 to 150 nM
N#CC[C@]1(n2cc(-c3ncnc4[nH]ccc34)cn2)C[C@H](N2CCC(Oc3cc(CN(CCO)CCO)cc(C(F)(F)F)n3)CC2)C1 [Example 16, {trans-3-(4-{[4-{[bis(2-hydroxyethyl)amino]methyl}-6-(trifluoromethyl)pyridin-2-yl]oxy}piperidin-1-yl)-1-[4-(7H-pyrrolo[2,3-d]pyrimidin-4-yl)-1H-pyrazol-1-yl]cyclobutyl}acetonitrile] | < 20 nM | >10 | 20 to 150 nM
CCNCc1cc(NC2CCN([C@H]3C[C@](CC#N)(n4cc(-c5ncnc6[nH]ccc56)cn4)C3)CC2)nc(C(F)(F)F)c1 [Example 32, {trans-3-(4-{[4-[(ethylamino)methyl]-6-(trifluoromethyl)pyridin-2-yl]amino}piperidin-1-yl)-1-[4-(7H-pyrrolo[2,3-d]pyrimidin-4-yl)-1H-pyrazol-1-yl]cyclobutyl}acetonitrile] | < 20 nM | >10 | 20 to 150 nM
COCc1cc(NC2CCN([C@H]3C[C@](CC#N)(n4cc(-c5ncnc6[nH]ccc56)cn4)C3)CC2)nc(C(F)(F)F)c1 [Example 45, {trans-3-(4-{[4-(methoxymethyl)-6-(trifluoromethyl)pyridin-2-yl]amino}piperidin-1-yl)-1-[4-(7H-pyrrolo[2,3-d]pyrimidin-4-yl)-1H-pyrazol-1-yl]cyclobutyl}acetonitrile] | < 20 nM | >10 | 20 to 150 nM
N#CC[C@]1(n2cc(-c3ncnc4[nH]ccc34)cn2)C[C@H](N2CCC(Oc3cc(CN[C@@H]4CCOC4)cc(C(F)(F)F)n3)CC2)C1 [Example 8, [trans-1-[4-(7H-pyrrolo[2,3-d]pyrimidin-4-yl)-1H-pyrazol-1-yl]-3-(4-{[4-{[(3R)-tetrahydrofuran-3-ylamino]methyl}-6-(trifluoromethyl)pyridin-2-yl]oxy}piperidin-1-yl)cyclobutyl]acetonitrile] | < 20 nM | >10 | 20 to 150 nM
